Measured values reported in PubChem BioAssay (NCI).
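Interpolation was linear, between the two tested concentrations surrounding the appropriate level; five concentrations were tested over 48 hours in 96-well plates. Definition used: TGI = concentration required for complete inhibition of growth.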 Where a SMILES comes first, the peptide text is derived from it. [ ]: non-standard residue; d: D form. pGlu = O=C1CC[CH](C(=O)O)N1; Thz = O=C(O)[CH]1CSCN1

Assays:
Test in all cases: inhibition of tumour cell growth, NCI panel, 48 h
[1] = test system: SW-620 colon
[2] = test system: SF-539 CNS
[3] = test system: SF-295 CNS
[4] = test system: HCC-2998 colon
[5] = test system: T-47D breast
[6] = test system: U251 CNS
[7] = test system: SF-268 CNS
[8] = test system: SNB-19 CNS
[9] = test system: OVCAR-3 ovarian
[10] = test system: MCF7 breast
[11] = test system: A498 renal
[12] = test system: HCT-116 colon

Compound | TGI [1] [µM] | TGI [2] [µM] | TGI [3] [µM] | TGI [4] [µM] | TGI [5] [µM] | TGI [6] [µM] | TGI [7] [µM] | TGI [8] [µM] | TGI [9] [µM] | TGI [10] [µM] | TGI [11] [µM] | TGI [12] [µM]
CCOC(=O)C12CCC(=O)N1N(C)c1ncccc1N2 (configuration not stated) | > 100 | > 100 | > 100 | > 100 | > 100 | > 100 | > 100 | > 100 | > 100 | > 100 | > 100 | > 100
COC1OC2COC1(OCc1ccccc1)C1OC(C)(C)OC21 (configuration not stated) | > 100 |  | > 100 | > 100 | > 100 | > 100 | > 100 | > 100 | > 100 | > 100 | > 100 | > 100
O=C(OC1=CCN(Br)C1=O)C1=C(O)C(=O)N(Br)C1 | 65.2 |  | 69.7 | > 100 | 45.2 | 58.1 | 67.3 | 43.6 | 51.6 | > 100 | > 100 | 35.6
C=C1C(C(=O)OC)[C@H]1C(=O)OC (some centres not stated) | > 100 | > 100 | > 100 | > 100 | > 100 | > 100 | > 100 | > 100 | > 100 | > 100 | > 100 | > 100
CCCCCCN(CCCCCC)CCC(=O)c1ccc2cc(Br)c3ccccc3c2c1 | > 100 | 52.5 | > 100 | > 100 | 60.5 | > 100 | > 100 | > 100 | > 100 | 54.9 | > 100 | > 100
CC(C)C1CSC2N1C(=O)C2(OCc1ccccc1)C1CC1 (configuration not stated) | > 100 | > 100 | > 100 | > 100 | > 100 | > 100 | > 100 | > 100 | > 100 | > 100 | > 100 | > 100
O=C(Cc1ccc2ccccc2c1)NCc1ccc(C(=O)NCCc2ccccc2)cc1 | > 100 |  | > 100 | > 100 | > 100 | > 100 | > 100 | > 100 | > 100 | > 100 | > 100 | > 100
COc1ccc(/C=C2\N=C(N3CCCC(CO)C3)NC2=O)cc1 (configuration not stated) | > 100 | > 100 | > 100 | > 100 | > 100 | > 100 | > 100 | > 100 | > 100 | > 100 |  | > 100
Cc1ccc2c(c1)nc1n2C(c2c(F)cccc2F)SC1 (configuration not stated) | > 100 | 59.2 | > 100 | > 100 | > 100 | > 100 | > 100 | > 100 | > 100 | > 100 |  | 72.3
O=c1onc2n1-c1ccc(Cl)cc1C(=S)N1CSCC21 (configuration not stated) | 47.7 |  | 41.9 | 35.4 | > 100 | 35.9 | 69.7 | 52.5 | > 100 | 96.9 | 64 | 95.7
C=C1C2CCC3C4(C)CCCC(C)(C(=O)O)C4CCC3(C2)C1OC(=O)/C(C)=C/C (configuration not stated) | > 100 | 55.1 | 44.2 | 69.5 | > 100 | > 100 | > 100 |  | 41 | 70.8 | 60.4 | > 100
COC(=O)C1=C(C)NC(=O)N2[C@@H](CCOCc3ccccc3)CC[C@@H]12 | > 50 | > 50 | > 50 | > 50 | 49.1 | > 50 | > 50 | > 50 | > 50 | > 50 | > 50 | 
COc1ccc(C2CC(c3c(O)ccc4ccccc34)=NN2)cc1OC (configuration not stated) |  | 18.4 | 17.6 | 6.15 | 58.2 | 11 | 11.5 | 6.34 | 20.6 | 34.5 | 43.6 | 
CC(NC(=O)C1CCC(=O)N1)C(=O)N1CCCC1C(N)=O (stereo not drawn) ([pGlu]-Ala-Pro-NH2; configuration not given here) | > 100 |  | > 100 | > 100 | > 100 | > 100 | > 100 | > 100 | > 100 | > 100 | > 100 | > 100
CCOC(=O)c1c(O)cn2c1[nH]c1cccc3cccc2c31 | > 100 |  | > 100 | > 100 | > 100 | > 100 | > 100 | > 100 |  | > 100 | > 100 | > 100
COC(NC(=O)Nc1ccc(C)cc1)(C(F)(F)F)C(F)(F)F | > 100 | > 100 | 90.7 |  | 97.7 | 45 | > 100 | 87.2 | > 100 | > 100 | 90.1 | > 100
COc1ccc(/C=N\N(C)Cc2cccc3ccsc23)cc1 | > 100 |  | > 100 | > 100 | > 100 | > 100 | > 100 | > 100 | > 100 | > 100 | > 100 | > 100
Cc1cc(N(CCC#N)CCC#N)ccc1/C(N=Nc1ccc([N+](=O)[O-])cc1)=N\NC(=O)c1cc(Cl)ccc1O |  | > 100 | > 100 | 46.2 | 97.9 | > 100 | 91.3 | > 100 | 38.2 | > 100 | 94.5 | 88.1
CN(C)Cc1cc(Cl)c(O)c(CN(C)C)c1 | > 100 |  | > 100 | > 100 | > 100 | > 100 | > 100 | > 100 | > 100 | > 100 | > 100 | > 100
O=C1C(Cl)=C(Cl)C(=O)C(CCNc2nccs2)=C1Cl | > 100 | > 100 | > 100 | > 100 | > 100 | > 100 | > 100 | > 100 | 49.8 | > 100 |  | 68.4
COC(=O)C(Cc1c[nH]c2ccccc12)NC(=O)C(Cc1cnc[nH]1)NC(=O)C1CCC(=O)N1C(=O)OCc1ccccc1 (configuration not stated) | > 100 |  |  | > 100 | > 100 | > 100 |  | > 100 |  | > 100 | 68.3 | > 100
NCC(=O)Nc1ccccc1 | > 100 |  | > 100 | > 100 | > 100 | > 100 | > 100 | > 100 | > 100 |  | > 100 | > 100
Cc1ncn(-c2ccccc2O)c1C | > 100 | > 100 | > 100 |  | > 100 | > 100 | > 100 | > 100 | > 100 | > 100 | > 100 | > 100
COC(=O)Nc1nc2ccc(NS(=O)(=O)c3cccs3)cc2[nH]1 | > 100 | > 100 | 70.9 |  | 85.3 | > 100 | > 100 | > 100 | 49.2 | 70.4 | 91.7 | 47.5
O=C1CCC(C(=O)N2CSCC2C(=O)O)N1 (configuration not stated) ([pGlu]-[Thz]-OH; configuration not given here) | > 100 | > 100 | > 100 | > 100 | > 100 |  | > 100 | > 100 | > 100 | > 100 | > 100 | 
O=C(Nc1ccccc1)N(CCN(Cc1ccccc1)C(=O)Nc1ccccc1)CCN(Nc1ccccc1)C(=O)Nc1ccccc1 | > 100 |  | > 100 | > 100 | > 100 | > 100 | > 100 | > 100 | > 100 | > 100 | > 100 | > 100
CO/C=C(/C(=O)OC)[C@@H]1C[C@@H]1c1ccc2ccccc2c1 |  | 44.2 | > 100 | 50.5 | 78.5 | > 100 | 99.2 | > 100 | 73.9 | > 100 | > 100 | 44.1
Nn1c(CCCCCCCCc2nnc(-c3c(O)ccc4ccccc34)n2N)nnc1-c1c(O)ccc2ccccc12 | > 100 | > 100 | > 100 | > 100 | > 100 | > 100 | > 100 | > 100 | > 100 | > 100 |  | > 100
Fc1cc(C2=Nn3c(COc4ccccc4Cl)nnc3S/C2=C\c2ccc(Cl)cc2)c(Cl)cc1Cl | 39.9 | > 100 | > 100 | 16.3 | > 100 | 80.2 | 9.06 |  | 62 | 83.4 | 29.7 | 26.1
Cn1c(-c2ccco2)ccc1-c1ccc(C=O)o1 | > 100 | 48.8 | > 100 | > 100 | > 100 | > 100 |  | > 100 | > 100 | > 100 | > 100 | 53.1
